# From paper PMC7522794, “Synthesis and evaluation of novel 2,4-disubstituted arylthiazoles against T. brucei” (RSC Medicinal Chemistry, 2019)
# Where a name gives a salt, the structure may show the parent alone.
# Columns and labels:
# [1] = tested on: Bloodstream form T. brucei (strain 427); assay: Trypanocidal activity against bloodstream form T. brucei (Alamar Blue growth inhibition); format: cell-based, Trypanosoma brucei; conditions: 48 hours + overnight Alamar Blue; for IC50: concentration that inhibits growth by 50%; for IC90: concentration that inhibits growth by 90%
# Protocol: Bloodstream form T. brucei (strain 427) were cultured at 37 °C in modified Iscove's medium. Trypanocidal activity was assessed by growing parasites in microtiter plates in the presence of various drug concentrations. […] The plates were incubated for 48 hours at 37 °C and 20 μL Alamar Blue was then added to each well. After an additional overnight incubation, the fluorescence was determined. Inhibition of growth was calculated by comparison with control values and IC50 and IC90 values were determined in triplicate using linear regression analysis.
# [2] = tested on: L6 cells; assay: Cytotoxic activity against rat skeletal myoblast L6 cells (Alamar Blue); format: cell-based; conditions: ratio of IC50 values obtained with L6 cells and T. brucei
# Protocol: (§1) Cytotoxicity against mammalian cells was assessed using microtitre plates. Briefly, L6 cells (a rat skeletal muscle line) were seeded at 1 × 10^4 mL^–1 in 200 μL of growth medium containing 7 different compound concentrations in a range previously established to encompass both the IC50 and IC90 values. The plates were incubated for 6 days at 37 °C and 20 μL Alamar Blue (Biosource UK Ltd) was then added to each well. After an additional 8 hours incubation, the fluorescence was determined using a FLUOstar Omega fluorescent plate reader (BMG Labtech). Inhibition of growth was calculated by comparison with control values and IC50 and IC90 values were determined in triplicate using linear regression analysis.
# [3] = as above; format: cell-based; conditions: rat, L6 cells (rat skeletal muscle line); cytotoxicity, 6 days incubation + 8 hours Alamar Blue
# Protocol: as §1
melting point,Compound,IC50 ([1]; Trypanosoma brucei),also measured
,"1-{2-[4-(1-Tricyclo[3.3.1.1^3,7]decyl)phenyl]thiazol-4-yl}guanidine [Compound 3e]",,IC50 [1]: ~10 µM
143 to 145 °C,"CC(=O)NCCc1csc(-c2ccc(F)c(C34CC5CC(CC(C5)C3)C4)c2)n1 (as salt: fumarate) [Compound 1d, N-{2-[2-(3-(1-Tricyclo[3.3.1.1^3,7]decyl)-4-fluorophenyl]thiazol-4-yl]ethyl}acetamide]",,
291 to 293 °C,"CCCC(=O)NCCc1csc(-c2ccc(F)c(C34CC5CC(CC(C5)C3)C4)c2)n1 (as salt: fumarate) [Compound 1e, N-{2-[2-(3-(1-Tricyclo[3.3.1.1^3,7]decyl)-4-fluorophenyl)thiazol-4-yl]ethyl}butylamide]",,
305 °C (dec.),"O=C(NCCc1csc(-c2ccc(F)c(C34CC5CC(CC(C5)C3)C4)c2)n1)c1ccccc1 (as salt: fumarate) [Compound 1f, N-{2-[2-(3-(1-Tricyclo[3.3.1.1^3,7]decyl)-4-fluorophenyl)thiazol-4-yl]ethyl}benzamide]",,
226 to 227 °C,"O=C(NCCc1csc(-c2ccc(F)c(C34CC5CC(CC(C5)C3)C4)c2)n1)c1ccc(F)cc1 (as salt: fumarate) [Compound 1g, N-{2-[2-(3-(1-Tricyclo[3.3.1.1^3,7]decyl)-4-fluorophenyl)thiazol-4-yl]ethyl}-4-fluorobenzamide]",,
301 °C (dec.),"O=C(NCCc1csc(-c2ccc(F)c(C34CC5CC(CC(C5)C3)C4)c2)n1)N1CCCC1 (as salt: fumarate) [Compound 1i, N-(2-(2-(3-(1-Tricyclo[3.3.1.1^3,7]decyl)-4-fluorophenyl)thiazol-4-yl)ethyl)pyrrolidin-1-yl-carboxamide]",,
147 to 149 °C,"CNCCc1csc(-c2ccc(C34CC5CC(CC(C5)C3)C4)cc2)n1 (as salt: fumarate) [Compound 2b, 2-{2-[4-(1-Tricyclo[3.3.1.1^3,7]decyl)phenyl]thiazol-4-yl}-N-methylethan-1-amine]",,
302 °C (dec.),"CN(C)CCc1csc(-c2ccc(C34CC5CC(CC(C5)C3)C4)cc2)n1 (as salt: fumarate) [Compound 2c, 2-{2-[4-(1-Tricyclo[3.3.1.1^3,7]decyl)phenyl]thiazol-4-yl}-N,N-dimethylethan-1-amine]",,
164 to 166 °C,"CC(=O)NCCc1csc(-c2ccc(C34CC5CC(CC(C5)C3)C4)cc2)n1 (as salt: fumarate) [Compound 2d, N-{2-[2-(4-(1-Tricyclo[3.3.1.1^3,7]decyl)phenyl)thiazol-4-yl]ethyl}acetamide]",,
246 to 248 °C,"NCCc1csc(-c2ccc(F)c(C34CC5CC(CC(C5)C3)C4)c2)n1 (as salt: hydrochloride) [Compound 1a, 2-{2-[3-(1-Tricyclo[3.3.1.1^3,7]decyl)-4-fluorophenyl]thiazol-4-yl}ethan-1-amine]",,
221 to 223 °C,"CNCCc1csc(-c2ccc(F)c(C34CC5CC(CC(C5)C3)C4)c2)n1 (as salt: hydrochloride) [Compound 1b, 2-{2-[3-(1-Tricyclo[3.3.1.1^3,7]decyl)-4-fluorophenyl]thiazol-4-yl}-N-methylethan-1-amine]",,
280 to 282 °C,"CN(C)CCc1csc(-c2ccc(F)c(C34CC5CC(CC(C5)C3)C4)c2)n1 (as salt: hydrochloride) [Compound 1c, 2-{2-[3-(1-Tricyclo[3.3.1.1^3,7]decyl)-4-fluorophenyl]thiazol-4-yl}-N,N-dimethylethyl-1-amine]",,
225 °C (dec.),"NCCc1csc(-c2ccc(C34CC5CC(CC(C5)C3)C4)cc2)n1 (as salt: hydrochloride) [Compound 2a, 2-{2-[4-(1-Tricyclo[3.3.1.1^3,7]decyl)phenyl]thiazol-4-yl}ethan-1-amine]",,
,"NCCc1csc(-c2ccc(F)c(C34CC5CC(CC(C5)C3)C4)c2)n1 [Compound 1a, 2-{2-[3-(1-Tricyclo[3.3.1.1^3,7]decyl)-4-fluorophenyl]thiazol-4-yl}ethan-1-amine]",0.42 ± 0.01 µM,S.I. (selectivity index) [2]: 2.5; IC50 [3]: 1.05 ± 0.23 µM; IC90 ([1]; Trypanosoma brucei): 0.56 ± 0.01 µM
,"CNCCc1csc(-c2ccc(F)c(C34CC5CC(CC(C5)C3)C4)c2)n1 [Compound 1b, 2-{2-[3-(1-Tricyclo[3.3.1.1^3,7]decyl)-4-fluorophenyl]thiazol-4-yl}-N-methylethan-1-amine]",0.9 ± 0.01 µM,S.I. (selectivity index) [2]: 2.2; IC50 [3]: 2.01 ± 0.32 µM; IC90 ([1]; Trypanosoma brucei): 1.1 ± 0.01 µM
,"CN(C)CCc1csc(-c2ccc(F)c(C34CC5CC(CC(C5)C3)C4)c2)n1 [Compound 1c, 2-{2-[3-(1-Tricyclo[3.3.1.1^3,7]decyl)-4-fluorophenyl]thiazol-4-yl}-N,N-dimethylethyl-1-amine]",0.79 ± 0.02 µM,S.I. (selectivity index) [2]: 1.9; IC50 [3]: 1.53 ± 0.09 µM; IC90 ([1]; Trypanosoma brucei): 1.03 ± 0.01 µM

melting point,Compound,IC50 ([1]; Trypanosoma brucei),also measured
,"CC(=O)NCCc1csc(-c2ccc(F)c(C34CC5CC(CC(C5)C3)C4)c2)n1 [Compound 1d, N-{2-[2-(3-(1-Tricyclo[3.3.1.1^3,7]decyl)-4-fluorophenyl]thiazol-4-yl]ethyl}acetamide]",15.3 ± 0.2 µM,IC90 ([1]; Trypanosoma brucei): 18.1 ± 0.2 µM
,"CCCC(=O)NCCc1csc(-c2ccc(F)c(C34CC5CC(CC(C5)C3)C4)c2)n1 [Compound 1e, N-{2-[2-(3-(1-Tricyclo[3.3.1.1^3,7]decyl)-4-fluorophenyl)thiazol-4-yl]ethyl}butylamide]",> 25 µM,
,"O=C(NCCc1csc(-c2ccc(F)c(C34CC5CC(CC(C5)C3)C4)c2)n1)c1ccccc1 [Compound 1f, N-{2-[2-(3-(1-Tricyclo[3.3.1.1^3,7]decyl)-4-fluorophenyl)thiazol-4-yl]ethyl}benzamide]",> 20 µM,
,"O=C(NCCc1csc(-c2ccc(F)c(C34CC5CC(CC(C5)C3)C4)c2)n1)c1ccc(F)cc1 [Compound 1g, N-{2-[2-(3-(1-Tricyclo[3.3.1.1^3,7]decyl)-4-fluorophenyl)thiazol-4-yl]ethyl}-4-fluorobenzamide]",> 20 µM,
,"Cc1ccoc1C(=O)NCCc1csc(-c2ccc(F)c(C34CC5CC(CC(C5)C3)C4)c2)n1 [Compound 1h, N-{2-[2-(3-(1-Tricyclo[3.3.1.1^3,7]decyl)-4-fluorophenyl)thiazol-4-yl]ethyl}-3-methylfuran-2-ylcarboxamide]",> 20 µM,
,"O=C(NCCc1csc(-c2ccc(F)c(C34CC5CC(CC(C5)C3)C4)c2)n1)N1CCCC1 [Compound 1i, N-(2-(2-(3-(1-Tricyclo[3.3.1.1^3,7]decyl)-4-fluorophenyl)thiazol-4-yl)ethyl)pyrrolidin-1-yl-carboxamide]",> 20 µM,
,"CN(C)CCc1csc(-c2ccc(C34CC5CC(CC(C5)C3)C4)cc2)n1 [Compound 2c, 2-{2-[4-(1-Tricyclo[3.3.1.1^3,7]decyl)phenyl]thiazol-4-yl}-N,N-dimethylethan-1-amine]",1.27 ± 0.07 µM,IC90 ([1]; Trypanosoma brucei): 1.6 ± 0.22 µM
,"CC(=O)NCCc1csc(-c2ccc(C34CC5CC(CC(C5)C3)C4)cc2)n1 [Compound 2d, N-{2-[2-(4-(1-Tricyclo[3.3.1.1^3,7]decyl)phenyl)thiazol-4-yl]ethyl}acetamide]",> 20 µM,
159 to 160 °C,"N#CCc1csc(-c2ccc(C34CC5CC(CC(C5)C3)C4)cc2)n1 [Compound 2e, 2-{2-[4-(1-Tricyclo[3.3.1.1^3,7]decyl)phenyl]thiazol-4-yl}acetonitrile]",> 20 µM,
169 to 170 °C,"N#CSCc1csc(-c2ccc(C34CC5CC(CC(C5)C3)C4)cc2)n1 [Compound 2f, 2-[4-(1-Tricyclo[3.3.1.1^3,7]decyl)phenyl]-4-(thiocyanatemethyl)thiazole]",~10 µM,
93 to 94 °C,"OCCc1csc(-c2ccc(C34CC5CC(CC(C5)C3)C4)cc2)n1 [Compound 2g, 2-{2-[4-(1-Tricyclo[3.3.1.1^3,7]decyl)phenyl]thiazol-4-yl}ethan-1-ol]",~10 µM,
,"[N-]=[N+]=NCCc1csc(-c2ccc(C34CC5CC(CC(C5)C3)C4)cc2)n1 [Compound 2h, 2-[4-(1-Tricyclo[3.3.1.1^3,7]decyl)phenyl]-4-(2-azidoethyl)thiazole]",> 20 µM,
172 °C (dec.),"Br.NCc1nc(-c2ccc(C34CC5CC(CC(C5)C3)C4)cc2)cs1 [Compound 3b, 2-{4-[4-(1-Tricyclo[3.3.1.1^3,7]decyl)phenyl]thiazol-2-yl}methanamine difumarate]",9.76 ± 0.77 µM,IC50 [3]: 12.6 ± 0.9 µM; IC90 ([1]; Trypanosoma brucei): 12.8 ± 0.2 µM
135 to 136 °C,"O=C(NCCc1csc(-c2ccccc2)n1)C12CC3CC(CC(C3)C1)C2 [Compound 4a, N-(2-(2-Phenylthiazol-4-yl)ethyl)(1-tricyclo[3.3.1.1^3,7]decane)carboxamide]",12.2 ± 0.8 µM,IC90 ([1]; Trypanosoma brucei): 18.7 ± 0.4 µM
,"CC1(C)[C@@H]2CC[C@]1(CS(=O)(=O)NCCc1csc(-c3ccccc3)n1)C(=O)C2 [Compound 4b, 1-((1R,4R)-7,7-Dimethyl-2-oxobicyclo[2.2.1]hept-1-yl)-N-(2-(2-phenylthiazol-4-yl)ethyl)methanesulfonamide]",20.6 ± 0.7 µM,IC90 ([1]; Trypanosoma brucei): 31.1 ± 0.3 µM
107 to 108 °C,"O=C(NCCc1nc(-c2ccccc2)cs1)C12CC3CC(CC(C3)C1)C2 [Compound 4c, N-[2-(4-Phenylthiazol-2-yl)ethyl](1-tricyclo[3.3.1.1^3,7]decane)carboxamide]",9.82 ± 0.22 µM,IC90 ([1]; Trypanosoma brucei): 13.1 ± 0.2 µM
